As a reminder, the IC50 is the concentration that inhibits the measured activity by half.

We go through 54 compounds from patent US11279703B2, “Fused pyrimidine compounds as BRD4 and JAK2 dual inhibitors and methods for use thereof” (APTOSE BIOSCIENCES INC., priority 2016, dated 2022).

The structures appear in SMILES notation. Where two headings read alike, the source gives them in different places.

Experiment [1] addresses JAK2 (Homo sapiens (Human), UniProt O60674). Put plainly: HTRF kinase assay, JAK2. The experiment is classed as biochemical. (In general: Time-resolved FRET reads energy transfer from a long-lived donor to a nearby acceptor.)
Experiment [2] deals with BRD4-BD1 (Homo sapiens (Human), UniProt O60885). Put plainly: AlphaLisa bromodomain binding assay, BRD4-BD1. Background: Bead proximity is the source of the signal in Alpha formats.
The mark [3] stands for this setting: Table 6, read-out: BRD4(1) IC50.

JAK2, sequence (O60674 whole entry): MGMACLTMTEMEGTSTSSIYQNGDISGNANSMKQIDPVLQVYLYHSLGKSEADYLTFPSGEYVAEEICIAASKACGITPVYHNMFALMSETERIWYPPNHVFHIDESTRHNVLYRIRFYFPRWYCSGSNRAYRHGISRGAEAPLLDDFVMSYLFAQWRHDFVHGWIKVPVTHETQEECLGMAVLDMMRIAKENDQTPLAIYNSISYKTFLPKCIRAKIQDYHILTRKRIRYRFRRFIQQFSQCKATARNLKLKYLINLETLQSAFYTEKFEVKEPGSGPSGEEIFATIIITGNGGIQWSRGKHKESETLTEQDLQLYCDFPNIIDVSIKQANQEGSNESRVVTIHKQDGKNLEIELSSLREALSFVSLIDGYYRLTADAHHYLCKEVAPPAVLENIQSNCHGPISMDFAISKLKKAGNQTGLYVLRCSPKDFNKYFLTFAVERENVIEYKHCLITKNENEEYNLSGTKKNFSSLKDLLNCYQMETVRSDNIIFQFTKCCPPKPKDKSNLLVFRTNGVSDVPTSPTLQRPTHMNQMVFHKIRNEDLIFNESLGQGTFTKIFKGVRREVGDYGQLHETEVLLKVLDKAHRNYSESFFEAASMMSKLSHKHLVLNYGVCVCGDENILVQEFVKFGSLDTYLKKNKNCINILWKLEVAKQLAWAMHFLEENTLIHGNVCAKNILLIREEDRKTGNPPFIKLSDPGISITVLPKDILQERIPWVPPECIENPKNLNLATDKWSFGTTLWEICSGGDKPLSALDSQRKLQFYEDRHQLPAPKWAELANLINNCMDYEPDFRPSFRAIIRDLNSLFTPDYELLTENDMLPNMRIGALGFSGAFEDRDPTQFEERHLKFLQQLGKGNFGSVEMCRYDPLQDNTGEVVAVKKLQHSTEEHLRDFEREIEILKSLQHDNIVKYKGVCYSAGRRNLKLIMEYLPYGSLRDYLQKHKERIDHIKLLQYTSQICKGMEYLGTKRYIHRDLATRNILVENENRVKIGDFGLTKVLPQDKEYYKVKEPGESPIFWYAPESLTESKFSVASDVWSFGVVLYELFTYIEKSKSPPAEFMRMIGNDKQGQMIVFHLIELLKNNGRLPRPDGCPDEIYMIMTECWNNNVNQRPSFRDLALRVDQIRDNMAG

Take `Cc1cnc(Nc2ccc(N3CCN(C)CC3)cc2)nc1Nc1cccc(NS(=O)(=O)C(C)(C)C)c1` [drawing 276]: the IC50 in experiment [1] (Table 6) came out at 0.008 µM; in experiment [2] (setting [3]), 0.164 µM.
On to `CC(C)(C)S(=O)(=O)Nc1cccc(-n2ccc3cnc(Nc4ccc5c(c4)CC4CNCCN54)nc32)c1` (stereo not drawn) [drawing 411], for which the IC50 turned out to be 0.013 µM in experiment [1] (Table 6) and 0.306 µM in experiment [2] (setting [3]).
With `CN1CCC(Nc2nc(Nc3cccc(N(C)S(=O)(=O)C(C)(C)C)c3)c3ccsc3n2)CC1`, the IC50 was 10 µM in experiment [1] (Table 6) and 0.94 µM in experiment [2] (setting [3]).
In the same order, the values of `CN(C)C1CCN(c2ccc(Nc3ncc4ccn(-c5ccc(F)c(NS(=O)(=O)C(C)(C)C)c5)c4n3)cc2F)CC1` [drawing 397] are 0.027 µM and 0.063 µM.
In the case of `Cc1cnc(Nc2ccc(N3CCN(C)CC3)cc2)nc1-n1ccc2c1CCNC2=O`, the half-inhibitory concentration (IC50) in experiment [1] (Table 6) came out at 5.92 µM; in experiment [2] (setting [3]), 5.72 µM.
In the same order, the values of `CNC1CCN(C(=O)c2ccc(Nc3ncc4ccn(-c5cccc(NS(=O)(=O)C(C)(C)C)c5)c4n3)cc2F)CC1` are 0.029 µM and 0.234 µM.
The like results for `CN1CCN(c2ccc(Nc3ncc4ccn(-c5cccc(CNS(=O)(=O)C(C)(C)C)c5)c4n3)cc2)CC1` were, in that order, 0.003 µM and 8.3 µM.
With `CN(C)C1CCN(c2ccc(Nc3ncc4ccn(-c5ccc(F)c(NS(=O)(=O)C(C)(C)C)c5)c4n3)cc2F)CC1` [drawing 408], the 50% inhibitory concentration (IC50) was 0.043 µM in experiment [1] (Table 6) and 0.063 µM in experiment [2] (setting [3]).
In the same order, the values of `CN1CCN(c2ccc(Nc3ncc4ccn(-c5ccc(F)c(NS(=O)(=O)C6CC6)c5)c4n3)cc2)CC1` are 0.0153 µM and 1.49 µM.
As for `CN(C)C1CCN(c2ccc(Nc3ncc4ccn(-c5cccc(NS(=O)(=O)C(C)(C)C)c5)c4n3)cc2)CC1` [drawing 75], the half-maximal inhibitory concentration (IC50) in experiment [1] (Table 5) came out at 0.0073 µM; in experiment [2] (Table 5, read-out: BRD4 IC50), 0.173 µM.
`CN1CCN2c3ccc(Nc4ncc5ccn(-c6ccc(F)c(NS(=O)(=O)C(C)(C)C)c6)c5n4)cc3CC2C1` (stereo not drawn): the values for the half-inhibitory concentration (IC50) in experiment [1] (Table 6) and in experiment [2] (setting [3]) were 0.137 µM and 0.321 µM, respectively.
In the same order, the values of `CN1CCC(NC(=O)c2ccc(Nc3ncc4ccn(-c5cccc(NS(=O)(=O)C6CC6)c5)c4n3)cc2)CC1` are 0.044 µM and 1.9 µM.
The like results for `CNc1cc(Nc2ncc3ccn(-c4cccc(NS(=O)(=O)C(C)(C)C)c4)c3n2)ccc1N1CCN(C)CC1` were, in that order, 0.022 µM and 0.561 µM.
The like results for `CC(C)(C)S(=O)(=O)Nc1cccc(Nc2nc(NC3CCNCC3)nc3sccc23)c1` [drawing 406] were, in that order, 10 µM and 1.2 µM.
Regarding `CC(=O)N1CCC(c2ccc(Nc3ncc4ccn(-c5cccc(NS(=O)(=O)C(C)(C)C)c5)c4n3)cc2)CC1`, the concentration for half-maximal inhibition (IC50) in experiment [1] (Table 6) was 0.456 µM; in experiment [2] (setting [3]), 10 µM.
`Cc1cnc(Nc2ccc(N3CCN(C)CC3)cc2)nc1Nc1cccc(NS(=O)(=O)C(C)(C)C)c1` [drawing 321]: the half-inhibitory concentration (IC50) came out at 0.013 µM in experiment [1] (Table 6) and 0.166 µM in experiment [2] (setting [3]).
The like results for `Cc1cnc(Nc2ccc(N3CCN(C)CC3)cc2)nc1Nc1cccc(NS(=O)(=O)C(C)(C)C)c1` [drawing 375] were, in that order, 0.0093 µM and 0.316 µM.
In the same order, the values of `COc1cc(Nc2ncc3ccn(-c4cccc(NS(=O)(=O)C(C)(C)C)c4)c3n2)ccc1N1CCC(N(C)C)CC1` are 0.002 µM and 0.421 µM.
As to `CN1CCN(C(=O)Cc2ccc(Nc3ncc4ccn(-c5cccc(NS(=O)(=O)C(C)(C)C)c5)c4n3)cc2)CC1`, the half-inhibitory concentration (IC50) in experiment [1] (Table 6) amounted to 0.176 µM; in experiment [2] (setting [3]), 0.916 µM.
As to `CN(C)C1CCN(c2ccc(Nc3ncc4ccn(-c5ccc(F)c(NS(=O)(=O)C(C)(C)C)c5)c4n3)cc2F)CC1` [drawing 373], the figures for the concentration for half-maximal inhibition (IC50) in experiment [1] (Table 6) and in experiment [2] (setting [3]) were 0.027 µM and 0.153 µM, respectively.
The like results for `CC(C)(C)S(=O)(=O)Nc1cccc(-n2ccc3cnc(Nc4ccc(C(=O)NC5CCNCC5)cc4)nc32)c1` were, in that order, 0.024 µM and 0.649 µM.
In the same order, the values of `CNCCOc1ccc(Nc2ncc3ccn(-c4cccc(NS(=O)(=O)C(C)(C)C)c4)c3n2)cc1F` [drawing 460] are 0.05 µM and 2.3 µM.
With `Cc1cnc(Nc2ccc(N3CCN(C)CC3)cc2)nc1Nc1cccc(NS(=O)(=O)C(C)(C)C)c1` [drawing 391], the IC50 in experiment [1] (Table 6) is 0.006 µM; in experiment [2] (setting [3]) it was 0.141 µM.
The like results for `CN1CCN(c2ccc(Nc3nc(-n4ccc(C(=O)NC5CC5)c4)c4ccsc4n3)cc2F)CC1` were, in that order, 10 µM and 10 µM.
On to `CN1CCN(C(=O)Cc2ccc(Nc3ncc4ccn(-c5ccc(F)c(NS(=O)(=O)C(C)(C)C)c5)c4n3)cc2)CC1`, for which the IC50 worked out at 0.239 µM in experiment [1] (Table 6) and 0.643 µM in experiment [2] (setting [3]).
The like results for `CN1CCN(c2ccc(Nc3ncc4ccn(-c5cccc(N(C)S(=O)(=O)C(C)(C)C)c5)c4n3)cc2)CC1` were, in that order, 0.009 µM and 1.1 µM.
Take `CN(C)C1CCN2c3ccc(Nc4ncc5ccn(-c6cccc(NS(=O)(=O)C(C)(C)C)c6)c5n4)cc3CC2C1` (stereo not drawn) [drawing 445]: the half-maximal inhibitory concentration (IC50) was 0.012 µM in experiment [1] (Table 6) and 0.105 µM in experiment [2] (setting [3]).
The like results for `CN1CCN(c2ccc(Nc3ncc4ccn(-c5ccc6c(c5)N(S(=O)(=O)C(C)(C)C)CC6)c4n3)cc2F)CC1` were, in that order, 0.038 µM and 1.3 µM.
As for `Cc1cnc(Nc2ccc(N3CCN(C)CC3)cc2)nc1Nc1cccc(NS(=O)(=O)C(C)(C)C)c1` [drawing 353], the IC50 in experiment [1] (Table 6) is 0.0066 µM; in experiment [2] (setting [3]) it was 0.278 µM.
For `CC(C)(C)S(=O)(=O)Nc1cccc(-n2ccc3cnc(Nc4ccc(NCCN)cc4)nc32)c1`, the results for the half-inhibitory concentration (IC50) in experiment [1] (Table 6) and in experiment [2] (setting [3]) were 0.02 µM and 0.682 µM, respectively.
The like results for `CN1CCN(c2ccc(Nc3ncc4ccn(-c5ccccc5NS(=O)(=O)C(C)(C)C)c4n3)cc2)CC1` were, in that order, 2.4 µM and 10 µM.
On to `CC(C)(C)S(=O)(=O)Nc1cccc(Nc2nc(NC3CCNC(=O)C3)nc3sccc23)c1` (stereo not drawn), for which the IC50 in experiment [1] (Table 6) came out at 10 µM; in experiment [2] (setting [3]), 1.21 µM.
In the same order, the values of `CCC1(S(=O)(=O)Nc2cc(-n3ccc4cnc(Nc5ccc(N6CCC(N(C)C)CC6)c(F)c5)nc43)ccc2F)CC1` are 0.024 µM and 0.963 µM.
As for `CN(C)C1CCN(c2ccc(Nc3ncc4ccn(-c5cccc(NS(=O)(=O)C(C)(C)C)c5)c4n3)cc2F)CC1` [drawing 401], the results for the IC50 in experiment [1] (Table 6) and in experiment [2] (setting [3]) were 0.0044 µM and 0.377 µM, respectively.
The like results for `CCC1(S(=O)(=O)Nc2cc(-n3ccc4cnc(Nc5ccc(N6CCN(C)CC6)c(F)c5)nc43)ccc2F)CC1` were, in that order, 0.103 µM and 1.5 µM.
As to `Cc1ccc(-n2ccc3cnc(Nc4ccc(N5CCN(C)CC5)cc4)nc32)cc1NS(=O)(=O)C(C)(C)C`, the results for the IC50 in experiment [1] (Table 6) and in experiment [2] (setting [3]) were 0.23 µM and 0.68 µM, respectively.
In the case of `CC(C)S(=O)(=O)N1CCN(c2ccc(Nc3ncc4ccn(-c5cccc(NS(=O)(=O)C(C)(C)C)c5)c4n3)cc2)CC1`, the IC50 in experiment [1] (Table 6) worked out at 0.12 µM; in experiment [2] (setting [3]) it was 8.3 µM.
On to `CN(C)C1CCN(Cc2ccc(Nc3ncc4ccn(-c5cccc(NS(=O)(=O)C(C)(C)C)c5)c4n3)cc2F)CC1`, for which the IC50 in experiment [1] (Table 6) is 0.051 µM; in experiment [2] (setting [3]), 0.145 µM.
The like results for `CN1CCC(Nc2ncc3ccn(-c4cccc(NS(=O)(=O)C(C)(C)C)c4)c3n2)CC1` were, in that order, 1000 µM and 0.284 µM.
In the same order, the values of `CN(C)C1CCN(c2ccc(Nc3ncc4ccn(-c5cccc(NS(=O)(=O)C6(C)CC6)c5)c4n3)cc2)CC1` are 0.006 µM and 0.636 µM.
Turning to `CC(C)(C)S(=O)(=O)Nc1cccc(-n2ccc3cnc(Nc4ccc5c(c4)CC4CNCCN54)nc32)c1` (stereo not drawn) [drawing 404], the concentration for half-maximal inhibition (IC50) in experiment [1] (Table 6) was found to be 0.018 µM; in experiment [2] (setting [3]), 0.393 µM.
In the case of `CN1CCC(NC(=O)c2ccc(Nc3ncc4ccn(-c5ccc(F)c(NS(=O)(=O)C(C)(C)C)c5)c4n3)cc2F)CC1` [drawing 363], the figures for the concentration for half-maximal inhibition (IC50) in experiment [1] (Table 6) and in experiment [2] (setting [3]) were 0.13 µM and 0.134 µM, respectively.
In the same order, the values of `CC1CNCCC1Nc1nc(Nc2ccc3c(c2)N(S(=O)(=O)C(C)(C)C)CC3)c2ccsc2n1` (stereo not drawn) are 10 µM and 5.8 µM.
On to `CC(C)(C)S(=O)(=O)Nc1cccc(-n2ccc3cnc(Nc4ccc(N5CCNCC5)c(F)c4)nc32)c1` [drawing 432], for which the IC50 in experiment [1] (Table 6) came to 0.008 µM; in experiment [2] (setting [3]) it was 0.174 µM.
In the same order, the values of `CN1CCN(c2ccc(Nc3ncc4ccn(-c5cccc6c5CCN6S(=O)(=O)C(C)(C)C)c4n3)cc2)CC1` are 0.008 µM and 10 µM.
In the same order, the values of `Cc1cnc(Nc2ccc(N3CCN(C)CC3)cc2)nc1Nc1cccc(NS(=O)(=O)C(C)(C)C)c1` [drawing 114] are 0.012 µM and 0.211 µM.
In the same order, the values of `CN1CCC(NC(=O)c2ccc(Nc3ncc4ccn(-c5ccc(F)c(NS(=O)(=O)C6CC6)c5)c4n3)cc2F)CC1` are 0.035 µM and 0.776 µM.
For `CN(C)C1CCN(C(=O)c2ccc(Nc3ncc4ccn(-c5ccc(F)c(NS(=O)(=O)C(C)(C)C)c5)c4n3)cc2F)CC1`, the IC50 in experiment [1] (Table 6) was 0.17 µM; in experiment [2] (setting [3]) it was 0.123 µM.
In the same order, the values of `CC(C)(C)S(=O)(=O)Nc1cc(-n2ccc3cnc(Nc4ccc(N5CCN(S(C)(=O)=O)CC5)c(F)c4)nc32)ccc1F` are 0.4 µM and 1.4 µM.
`CC(C)(C)S(=O)(=O)Nc1cccc(-n2ccc3cnc(Nc4ccc(N5CCNCC5)c(F)c4)nc32)c1` [drawing 431]: the IC50 was determined as 0.0096 µM in experiment [1] (Table 6) and 0.248 µM in experiment [2] (setting [3]).
In the same order, the values of `CN1CCN(C(=O)c2ccc(Nc3ncc4ccn(-c5cccc(NS(=O)(=O)C(C)(C)C)c5)c4n3)cc2)CC1` are 0.028 µM and 0.771 µM.
In the same order, the values of `CN1C(=O)CCc2cc(Nc3ncc4ccn(-c5cccc(NS(=O)(=O)C(C)(C)C)c5)c4n3)ccc21` are 0.035 µM and 3.2 µM.
For the compound `CN1CCC(NC(=O)c2ccc(Nc3ncc4ccn(-c5ccc(F)c(NS(=O)(=O)C(C)(C)C)c5)c4n3)cc2F)CC1` [drawing 335], the IC50 in experiment [1] (Table 6) came to 360 µM; in experiment [2] (setting [3]), 0.094 µM.
Turning to `CN1CCN(c2ccc(Nc3ncc4ccn(-c5cccc(NS(=O)(=O)c6ccccc6)c5)c4n3)cc2)CC1` [drawing 287], the half-maximal inhibitory concentration (IC50) in experiment [1] (Table 6) was found to be 0.003 µM; in experiment [2] (setting [3]), 10 µM.
